Results reported in patent publication EP4563149A1, “LURBINECTEDIN, ECUBECTEDIN AND A RELATED COMPOUND FOR USE IN THE TREATMENT OF SKIN CANCERS” (Pharma Mar, S.A., priority 2023, dated 2025).

Experiments:
[1] = test system: 501mel, 501mel^VemuR or SKMEL28 melanoma cells; conditions: weekly IV 1.2mg/kg; for antitumor activity (tumor volumes) versus placebo-treated group: N=8/group; for overall survival: three CDX models
Description: To investigate the effects of the aforementioned tested drugs in living organisms, it was decided to examine the impact of PM14 and Compound IA on melanoma cell-derived xenograft (CDXs) mouse models. Human 501mel, 501mel^VemuR or SKMEL28 melanoma cells were subcutaneously implanted into the right flank of NSG mice.
Tumor volumes were monitored following weekly IV treatments of PM14 or Comp IA at a concentration of 1.2mg/kg. Treatments commenced (Day 0) when the tumors reached 150 mm^3 in female NSG mice aged 4 to 6 weeks (N=8/group).

MM074 and MM029 cells = conditions: MM074 and MM029, 10×IC50 for 8h
Description: Purified RNA was subjected to library preparation and high throughput sequencing on Illumina NovaSeq as signal-read 50 base reads following manufacturer's instructions. Sequenced samples were analyzed using nf-core RNAseq pipeline v1.3, quality controlled, trimmed, and aligned to the reference human genome using HISAT2. The identification and quantification of transcripts were performed using feature Counts from subread package. Differential expressed gene (DEG) analysis were done using DeSeq2.

501mel^VemuR = test: Cell viability assay (PrestoBlue), 72h; conditions: Homo sapiens
Description: Cells were grown at 37°C in 5% CO2 (10% for Hermes 3A) and were regularly checked for mycoplasma contamination. MM patient-derived short-term melanoma cultures (MM011, MM074, MM117, MM029, MM047, MM099) were grown in HAM-F10 (Gibco, Invitrogen) supplemented with 10% Fetal Calf Serum (FCS), 25 mM HEPES, 5.2 mM GLUTAMAX and penicillin-streptomycin. Melanoma cell lines 501mel and SKmel28 were grown in RPMI w/o HEPES (Gibco, Invitrogen) supplemented with 10% FCS and gentamycin. Vemurafenib-resistant cells (501melVemuR and MM074VemuR) were additionally supplemented with 1.5 µM of vemurafenib. Melanoma IGR cell lines (IGR37 and IGR39) were grown in RPMI w/o HEPES (Gibco, Invitrogen) supplemented with 15% FCS and gentamycin.
(§1) To determine the IC50 (half maximal inhibitory concentration) of these cells to various inhibitors, cell viability assays were performed.
(§2) After 72h of treatment with different concentrations of the compounds, cells were treated with PrestoBlue reagent according to the manufacturer's instructions. The absorbance per well was measured with a Cellinsight CX5 microplate reader. Data were analyzed using Prism9 statistical software.

MM029 = test: Cell viability assay (PrestoBlue), 72h; conditions: Homo sapiens
Description: Cells were grown at 37°C in 5% CO2 (10% for Hermes 3A) and were regularly checked for mycoplasma contamination. […] Melanoma IGR cell lines (IGR37 and IGR39) were grown in RPMI w/o HEPES (Gibco, Invitrogen) supplemented with 15% FCS and gentamycin.
as §1, §2

Structure (SMILES)	antitumor activity (tumor volumes) versus placebo-treated group [1]	overall survival [1]	transcriptional effects compared to lurbinectedin (MM074 and MM029 cells)	IC50 (501mel^VemuR) [nM]	IC50 (MM029) [nM]
COc1c(C)cc2c(c1O)[C@@H]1[C@@H]3[C@@H]4SC[C@]5(N[C@H](CO)Cc6c5oc5ccccc65)C(=O)OC[C@@H](c5c6c(c(C)c(OC(C)=O)c54)OCO6)N3[C@@H](O)[C@H](C2)N1C [Compound IA]	statistically significant difference	significant increase	dissimilar and fewer genes being deregulated	2.13	4.73
COc1c(C)cc2c(c1O)[C@@H]1[C@@H]3[C@@H]4SC[C@]5(N[C@H](CO)Cc6c5[nH]c5ccccc65)C(=O)OC[C@@H](c5c6c(c(C)c(OC(C)=O)c54)OCO6)N3[C@@H](O)[C@H](C2)N1C [PM14, ecubectedin]	statistically significant difference	significant increase		1.04	1.4
